Values of other authors, collected in patent US4307083A, “LRF Antagonists” (The Salk Institute for Biological Studies, priority 1980, dated 1981).
Non-standard residues stand in square brackets, D forms with d. pGlu = O=C1CC[C@@H](C(=O)O)N1

Tested on: release of gonadotropins
Conditions: versus des-His2 peptide with Gly instead of D-Ala at position 6

[pGlu]WSY[dA]LRPG-NH2
Potency as inhibitor of gonadotropin release relative to the same peptide with Gly in the 6-position: 3 times
